{
  "source": "patent US20220313670A1",
  "about": "“Methods Of Treating Fabry Disease In Patients Having Renal Impairment” (Amicus Therapeutics, Inc., priority 2019, published 2022)",
  "key": {"[1]": {"assay": "Multiple dose simulations (2-compartment model, WinNonlin) on the renal impairment subjects of Example 1", "set-up": "species or system human", "conditions": "ratio to AUCPPK", "excerpt": "This example provides computer simulations of dosing the renal impairment subjects of Example 1. The key assumption was exposure characterized in non-Fabry subjects with renal impairment is the same as in Fabry patients with renal impairment. The software program was WinNonlin version 5.2 or higher. […] Steady state was assumed by 7th dose. […] QOD (every other day or 48 hrs), Q3D (every 3rd day or 72 hrs), Q4D (every 4th day or 96 hrs), and Q7D (every 7th day/once a week or 168 hrs). A 2-compartment model was used to estimate volume of distribution (Vd) and elimination rate constants from single dose data. These estimates were inputted into each molecular dose simulation regimen."}, "[2]": {"assay": "FACETS (011) population PK from sparse blood sampling in Fabry patients", "type": "in vivo, human", "conditions": "for Comparison to FACETS PPK (migalastat concentration): Fabry patients of FACETS", "excerpt": "One or more of the dosing regimens described herein are particularly suitable for Fabry patients who have some degree of renal impairment. […] FACETS (011, NCT00925301) was a 24-month trial, including a 6-month double-blind, placebo-controlled period, in 67 enzyme replacement therapy (ERT)-naive patients. ATTRACT (012, NCT01218659) was an active-controlled, 18-month trial in 57 ERT-experienced patients with a 12-month open-label extension (OLE). Both the FACETS and ATTRACT studies included patients having an estimated glomerular filtration rate (eGFR) of ≥30 ml/min/1.73 m^2. Accordingly, both studies included Fabry patients with normal renal function as well as patients with mild and moderate renal impairment, but neither study included patients with severe renal impairment.\nThus, two Fabry patients with renal impairment were evaluated. One patient (P1) had moderate renal impairment, while the other patient (P2) had severe renal impairment. […] The comparison with the results from the FACETS study allows for comparison of PK in the Fabry population with mostly normal, but some mild and a few moderately impaired Fabry patients. None had severe renal impairment because these patients were excluded from the study."}, "lyso-Gb3": {"test_system": "lyso-Gb3", "assay": "Plasma lyso-Gb3 in Fabry patients on migalastat", "type": "in vivo, human", "excerpt": "In further embodiments, the method further comprises measuring lyso-Gb3 in one or more plasma samples from the patient. A first baseline lyso-Gb3 level may be determined during the first time period. As used herein, “baseline lyso-Gb3 level” refers to the lowest plasma lyso-Gb3 value measured during a given time period or dosing regimen. […] Thus, in further embodiments, the administration of the second time period is begun after an increase (e.g., of at least about 20, 25, 30, 33, 35, 40, 45 or 50% and/or 1, 1.25, 1.5, 1.75, 2, 2.25, 2.5 or 3 nM) above the first baseline lyso-Gb3 level is measured. […] Lyso-Gb3 levels may be measured at varying frequencies (e.g., about once every 2, 3, 4 or 5 months). It is thought that it takes about 3 months for a baseline lyso-Gb3 level to be established once a dosing regimen has been started.\nLyso-Gb3 can be measured via methods known in the art using validated assays. […] For example, one process of measuring plasma lyso-Gb3 is described in Hamler, Rick, et al. “Accurate quantitation of plasma globotriaosylsphingosine (lyso-Gb3) in normal individuals and Fabry disease patients by liquid chromatography—tandem mass spectrometry (LC—MS/MS).” Molecular Genetics and Metabolism, Volume 114.2 (2015):S51. In one or more embodiments, lyso-Gb3 is measured in samples from a patient's urine."}},
  "note": "Several values for one entry are separate records, joined by “and”; a condition that tells them apart may be missing. Equal entries are not always repeated. Where two headings read alike, the source gives them in different places.",
  "data": [
    {"compound": "OC[C@H]1NC[C@H](O)[C@@H](O)[C@H]1O", "note": "[migalastat, (2R,3S,4R,55)-2-(hydroxymethyl) piperdine-3,4,5-triol]", "values": [
      {"measurement": "RacPPK", "setting": "[1]; Geometric Mean of the 11 subjects", "value": 4.96},
      {"measurement": "RacPPK", "setting": "[1]; individual subjects, Moderate (≥30-≤35) group", "value": "3.75 and 4.36 and 2.06"},
      {"measurement": "RacPPK", "setting": "[1]; individual subjects, Severe (<30) group", "value": "8.81 and 5.59 and 5.02 and 6.74 and 6.23 and 6.91 and 3.62 and 5.17"},
      {"measurement": "Comparison to FACETS PPK (migalastat concentration)", "setting": "[2]; 3 Hrs Post, (coefficient of variation)", "value": "1180 (31.0%)"},
      {"measurement": "Comparison to FACETS PPK (migalastat concentration)", "setting": "[2]; 48 Hrs Post", "value": 8.70},
      {"measurement": "Comparison to FACETS PPK (migalastat concentration)", "setting": "[2]; 48 h", "value": 8.70},
      {"measurement": "Comparison to FACETS PPK (migalastat concentration)", "setting": "[2]; Pre-dose (0 h)", "value": 8.70},
      {"measurement": "concentration at 48 h", "setting": "[2]; human, plasma, 150 mg, FACETS population PK, 150 mg QOD, read-out: PPK Cmin", "value": 8.7, "unit": "ng/mL"},
      {"measurement": "AUC(0-t)", "setting": "[2]; human, plasma, 150 mg, 011 PPK (CLcr ≥30-≥90 mL/min), N 62, QOD regimen, read-out: AUC0-t, Geometric mean", "value": 9030, "unit": "ng·h/mL"},
      {"measurement": "concentration at 48 h", "setting": "[2]; human, plasma, 150 mg, 011 PPK (CLcr ≥30-≥90 mL/min), N 62, QOD regimen, read-out: C48 h, Mean", "value": 7.54, "unit": "ng/mL"},
      {"measurement": "Cmax", "setting": "[2]; human, plasma, 150 mg, 011 PPK (CLcr ≥30-≥90 mL/min), N 62, QOD regimen, read-out: Cmax, Geometric mean (CV %)", "value": 1180, "unit": "ng/mL"},
      {"measurement": "half-life", "setting": "[2]; human, plasma, 150 mg, 011 PPK (CLcr ≥30-≥90 mL/min), N 62, QOD regimen, read-out: t1/2, Mean (converted)", "value": 20.6, "unit": "h"},
      {"measurement": "AUC", "setting": "[2]; human, plasma, 150 mg, reference AUC of the 011 PK model, the same value printed on every subject line", "value": 9520, "unit": "ng·h/mL"},
      {"measurement": "Lyso-Gb3", "setting": "lyso-Gb3; Fabry patient P1, 18 Month Visit", "value": 11.1, "unit": "nM/L"},
      {"measurement": "Lyso-Gb3", "setting": "lyso-Gb3; Fabry patient P1, 24 Month Visit", "value": 13.1, "unit": "nM/L"},
      {"measurement": "Lyso-Gb3", "setting": "lyso-Gb3; Fabry patient P1, 30 Month Visit", "value": 10.8, "unit": "nM/L"},
      {"measurement": "Lyso-Gb3", "setting": "lyso-Gb3; Fabry patient P1, 34-Month Visit", "value": 9.3, "unit": "nM/L"},
      {"measurement": "change of plasma lyso-Gb3 from previous visits", "setting": "lyso-Gb3; Fabry patient P1, decline in renal function to eGFR of 32 mL/min/1.73 m^2", "value": "has not shown clinically relevant changes"},
      {"measurement": "Lyso-Gb3", "setting": "lyso-Gb3; Fabry patient P3, August 2014, QOD", "value": 13.10, "unit": "nmol/L"},
      {"measurement": "Lyso-Gb3", "setting": "lyso-Gb3; Fabry patient P3, August 2017, Q4D", "value": 9.85, "unit": "nmol/L"},
      {"measurement": "Lyso-Gb3", "setting": "lyso-Gb3; Fabry patient P3, February 2014, QOD", "value": 11.10, "unit": "nmol/L"},
      {"measurement": "Lyso-Gb3", "setting": "lyso-Gb3; Fabry patient P3, February 2015, QOD", "value": 10.80, "unit": "nmol/L"},
      {"measurement": "Lyso-Gb3", "setting": "lyso-Gb3; Fabry patient P3, February 2018, Q7D", "value": 7.04, "unit": "nmol/L"},
      {"measurement": "Lyso-Gb3", "setting": "lyso-Gb3; Fabry patient P3, January 2018, Q7D", "value": 9.04, "unit": "nmol/L"},
      {"measurement": "Lyso-Gb3", "setting": "lyso-Gb3; Fabry patient P3, June 2015, QOD", "value": 9.30, "unit": "nmol/L"},
      {"measurement": "Lyso-Gb3", "setting": "lyso-Gb3; Fabry patient P3, March 2011, QOD", "value": 24.15, "unit": "nmol/L"},
      {"measurement": "Lyso-Gb3", "setting": "lyso-Gb3; Fabry patient P3, March 2016, QOD", "value": 8.46, "unit": "nmol/L"},
      {"measurement": "Lyso-Gb3", "setting": "lyso-Gb3; Fabry patient P3, May 2017, Q4D", "value": 13.10, "unit": "nmol/L"},
      {"measurement": "Lyso-Gb3", "setting": "lyso-Gb3; Fabry patient P3, November 2017, Q4D", "value": 8.55, "unit": "nmol/L"},
      {"measurement": "Lyso-Gb3", "setting": "lyso-Gb3; Fabry patient P3, September 2010, QOD", "value": 27.30, "unit": "nmol/L"},
      {"measurement": "Lyso-Gb3", "setting": "lyso-Gb3; Fabry patient P3, September 2015, QOD", "value": 7.36, "unit": "nmol/L"}
    ]}
  ]
}
